Calls of active or inactive are those of the source. The calls are words filed in the database; no cut-off is given here.
Experiments:
[1] = biological target: Cathepsin S (Homo sapiens) (UniProt P25774); assay: Inhibition of cathepsin S (unknown origin) using Z-Val-Val-Arg-AMC as substrate at 100 uM measured every minute for 30 mins by fluorometric plate reader analysis
[2] = species: Homo sapiens; assay: Selectivity ratio, ratio of concentration required for inhibition of cathepsin S (unknown origin) to IC50 for F13-A (unknown origin)
[3] = biological target: T1, Coagulation factor XIII A chain (Homo sapiens, UniProt P00488); assay: Inhibition of thrombin-activated F13-A (unknown origin) in plasma assessed as inhibition of fibrin clot formation after 7 mins by biotin incorporation assay
T1 sequence (P00488 whole entry): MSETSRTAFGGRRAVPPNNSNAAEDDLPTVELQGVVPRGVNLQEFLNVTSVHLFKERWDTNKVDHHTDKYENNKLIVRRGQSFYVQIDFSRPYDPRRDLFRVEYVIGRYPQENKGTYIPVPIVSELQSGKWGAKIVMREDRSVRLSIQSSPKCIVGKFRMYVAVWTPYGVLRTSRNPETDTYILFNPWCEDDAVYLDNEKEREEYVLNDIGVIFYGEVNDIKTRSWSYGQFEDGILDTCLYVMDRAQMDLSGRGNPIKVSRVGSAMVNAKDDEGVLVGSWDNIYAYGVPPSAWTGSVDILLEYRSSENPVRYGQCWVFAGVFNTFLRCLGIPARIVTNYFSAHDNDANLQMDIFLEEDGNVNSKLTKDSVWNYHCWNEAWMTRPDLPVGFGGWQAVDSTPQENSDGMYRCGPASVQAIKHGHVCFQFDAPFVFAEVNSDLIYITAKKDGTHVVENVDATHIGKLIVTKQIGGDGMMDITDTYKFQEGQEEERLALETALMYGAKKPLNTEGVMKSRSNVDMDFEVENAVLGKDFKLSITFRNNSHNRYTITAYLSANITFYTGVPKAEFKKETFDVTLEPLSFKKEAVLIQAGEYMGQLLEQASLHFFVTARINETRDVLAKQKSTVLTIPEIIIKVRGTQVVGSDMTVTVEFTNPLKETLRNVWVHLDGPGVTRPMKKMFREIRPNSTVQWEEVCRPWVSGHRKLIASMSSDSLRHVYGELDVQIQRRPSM

[4] = biological target: T2, Protein-glutamine gamma-glutamyltransferase (Homo sapiens, UniProt P21980); assay: Inhibition of transglutaminase 2 (unknown origin)
T2 sequence (P21980 whole entry): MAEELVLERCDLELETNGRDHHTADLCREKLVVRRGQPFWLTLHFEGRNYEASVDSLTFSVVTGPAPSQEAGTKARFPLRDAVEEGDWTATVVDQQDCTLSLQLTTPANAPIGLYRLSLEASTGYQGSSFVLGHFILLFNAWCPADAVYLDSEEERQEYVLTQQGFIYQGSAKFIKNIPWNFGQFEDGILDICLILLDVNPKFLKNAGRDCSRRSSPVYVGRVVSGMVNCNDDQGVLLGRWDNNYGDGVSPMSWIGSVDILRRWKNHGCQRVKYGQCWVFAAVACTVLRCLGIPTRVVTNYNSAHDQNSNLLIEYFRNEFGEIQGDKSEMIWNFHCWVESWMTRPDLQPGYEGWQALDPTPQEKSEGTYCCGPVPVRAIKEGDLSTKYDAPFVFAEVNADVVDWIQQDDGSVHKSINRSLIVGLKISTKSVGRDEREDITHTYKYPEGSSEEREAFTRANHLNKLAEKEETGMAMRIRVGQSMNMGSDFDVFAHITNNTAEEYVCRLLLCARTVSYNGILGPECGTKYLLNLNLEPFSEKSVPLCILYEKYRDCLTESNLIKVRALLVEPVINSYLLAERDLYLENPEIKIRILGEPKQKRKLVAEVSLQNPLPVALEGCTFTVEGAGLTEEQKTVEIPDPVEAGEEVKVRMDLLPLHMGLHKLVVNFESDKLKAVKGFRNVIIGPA

[5] = biological target: T1, Coagulation factor XIII A chain; assay: Inhibition of F13-A in human plasma assessed as inhibition of fibrin clot formation by biotin incorporation assay in presence of 1 mM reduced GSH
[6] = biological target: T3, Coagulation factor XIII A chain (Homo sapiens) (UniProt P00488); assay: Inhibition of F13-A in human plasma assessed as inhibition of fibrin clot formation at 2 X 10^-8 M by biotin incorporation assay; details: values are per cent of control
T3 sequence (whole entry): T1 sequence (P00488 whole entry)

[7] = biological target: T3, Coagulation factor XIII A chain (Homo sapiens); assay: Inhibition of F13-A in human plasma assessed as inhibition of fibrin clot formation at 2 X 10^-7 M by biotin incorporation assay; details: values are per cent of control
[8] = biological target: T3, Coagulation factor XIII A chain (Homo sapiens); assay: Inhibition of F13-A in human plasma assessed as inhibition of fibrin clot formation at 1 X 10^-6 M by biotin incorporation assay; details: values are per cent of control
[9] = biological target: T3, Coagulation factor XIII A chain (Homo sapiens); assay: Inhibition of F13-A in human plasma assessed as inhibition of fibrin clot formation at 7.5 X 10^-8 M by biotin incorporation assay; details: values are per cent of control
[10] = biological target: T3, Coagulation factor XIII A chain (Homo sapiens); assay: Inhibition of F13-A in human plasma assessed as inhibition of fibrin clot formation at 7.5 X 10^-8 M by biotin incorporation assay in presence of 10 X 10^-3 mol/l reduced GSH; details: values are per cent of control
[11] = biological target: T3, Coagulation factor XIII A chain (Homo sapiens); assay: Inhibition of F13-A in human plasma assessed as inhibition of fibrin clot formation at 2 X 10^-7 M by biotin incorporation assay in presence of 10 X 10^-3 mol/l reduced GSH; details: values are per cent of control
[12] = biological target: T3, Coagulation factor XIII A chain (Homo sapiens); assay: Inhibition of F13-A in human plasma assessed as inhibition of fibrin clot formation at 1 X 10^-6 M by biotin incorporation assay in presence of 10 X 10^-3 mol/l reduced GSH; details: values are per cent of control
[13] = biological target: T3, Coagulation factor XIII A chain (Homo sapiens); assay: Inhibition of F13-A in human plasma assessed as inhibition of fibrin clot formation at 2 X 10^-8 M by biotin incorporation assay in presence of 10 X 10^-3 mol/l reduced GSH; details: values are per cent of control
[14] = biological target: T3, Coagulation factor XIII A chain (Homo sapiens); assay: Inhibition of F13-A (unknown origin) at 10^-6 mol/l in presence of 5 X 10^-3 mol/l DTT

Sequence of Cathepsin S (Homo sapiens) (P25774 115-331 limits assumed): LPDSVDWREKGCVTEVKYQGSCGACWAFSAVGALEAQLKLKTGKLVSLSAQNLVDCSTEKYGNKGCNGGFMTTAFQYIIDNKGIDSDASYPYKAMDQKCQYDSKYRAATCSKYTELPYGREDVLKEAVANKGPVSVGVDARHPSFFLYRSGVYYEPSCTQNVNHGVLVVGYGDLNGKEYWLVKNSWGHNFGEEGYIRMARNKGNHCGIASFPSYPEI

Row | inhibition [1] | Selectivity ratio [2] | IC50 [3] | IC50 [4] | residual activity [6] | residual activity [7] | residual activity [8] | residual activity [9] | residual activity [10] | residual activity [11] | residual activity [12] | residual activity [13] | inhibition [14] | Structure (SMILES) | IC50 [5]
1 | inactive | 10000 | 86 nM | 48 nM | – | – | – | – | – | – | – | – | – | NC(=O)[C@@H]1O[C@@H]1C(=O)Nc1ccc(Oc2ccc(N)cc2)cc1 (racemic) | –
2 | inactive | 10000 | 100 nM | 150 nM | – | – | – | – | – | – | – | – | – | NC(=O)[C@@H]1O[C@@H]1C(=O)Nc1ccc(Oc2ccc(NC(=O)c3ccc(F)cc3)cc2)cc1 (racemic) | –
3 | inactive | 10000 | 48 nM | 48 nM | – | – | – | – | – | – | – | – | – | NC(=O)[C@H]1O[C@H]1C(=O)Nc1cccc(Cl)c1 (racemic) | –
4 | inactive | 10000 | 110 nM | 130 nM | – | – | – | – | – | – | – | – | – | Cc1ccc(NC(=O)[C@H]2O[C@H]2C(N)=O)cc1C (racemic) | –
5 | inactive | 10000 | 130 nM | 57 nM | – | – | – | – | – | – | – | – | – | NC(=O)[C@@H]1O[C@@H]1C(=O)Nc1ccc(Br)cc1 (racemic) | –
6 | inactive | 10000 | 430 nM | – | – | – | – | – | – | – | – | – | – | NC(=O)[C@@H]1O[C@@H]1C(=O)Nc1ccc(Oc2ccc([N+](=O)[O-])cc2)cc1 (racemic) | –
7 | inactive | 10000 | 4 nM | 50 nM | – | – | – | – | – | – | – | – | – | NC(=O)[C@H]1O[C@H]1C(=O)Nc1cccc(Oc2ccccc2)c1 (racemic) | –
8 | inactive | 10000 | 220 nM | 150 nM | 93% | 76% | 27% | 99% | 104% | 79% | 34% | 102% | – | CCCCc1ccc(NC(=O)[C@@H]2O[C@@H]2C(N)=O)cc1 (racemic) | –
9 | inactive | 10000 | 720 nM | 1100 nM | – | – | – | – | – | – | – | – | – | NC(=O)[C@@H]1O[C@@H]1C(=O)Nc1ccccc1 (racemic) | –
10 | inactive | 10000 | 90 nM | 88 nM | – | – | – | – | – | – | – | – | – | NC(=O)[C@@H]1O[C@@H]1C(=O)Nc1ccc(CCNS(=O)(=O)c2ccccc2[N+](=O)[O-])cc1 (racemic) | –
11 | inactive | 10000 | 4 nM | 9.6 nM | – | – | – | – | – | – | – | – | – | NC(=O)[C@@H]1O[C@@H]1C(=O)Nc1ccc(Br)c(Cl)c1 (racemic) | –
12 | inactive | 10000 | 55 nM | 46 nM | 96% | 32% | 6.1% | 66% | 78% | 47% | 7.8% | 90% | Active | NC(=O)[C@H]1O[C@H]1C(=O)Nc1ccc(Oc2ccccc2)cc1 (racemic) | –

Row | Structure (SMILES) | inhibition [1] | Selectivity ratio [2] | IC50 [3] | IC50 [4] | residual activity [6] | residual activity [7] | residual activity [8] | residual activity [9] | residual activity [10] | residual activity [11] | residual activity [12] | residual activity [13] | inhibition [14] | IC50 [5]
13 | C/C=C/C/C=C/CCC(=O)[C@H]1O[C@H]1C(N)=O [CERULENIN] | – | – | 4000 nM | – | – | – | – | – | – | – | – | – | – | 18000 nM

Reference: ChEMBL document CHEMBL3421597, “(±) cis-Bisamido epoxides: A novel series of potent FXIII-A inhibitors” (Eur J Med Chem, 2015)
